Laboratory results as given in patent EP3769768A1, “COMPOUNDS USEFUL FOR THE TREATMENT OF PARKINSON S DISEASE” (priority 2019, dated 2021).
Read-outs that look alike come from different tables or passages of the source.

Key:
[1] = test system: lymphoblasts from G2019S LRRK2 PD patients; conditions: for reversal of the cohesion deficit: five G2019S LRRK2 PD patients, dose-response; for Centrosomal cohesion deficits: three lymphoblast lines from G2019S LRRK2 PD patients, short-term application of LRRK2 kinase inhibitor, Figure 1A
Source text: Peripheral blood mononuclear cells (PBMCs) were collected and processed according to manufacturer's instructions, and lymphocytes were immortalized by infection with Epstein-Barr virus (EBV) as described. Briefly, cell lines were established from freshly isolated or cryopreserved lymphocytes using standard EBV transformation protocols which include cell separation by gradient centrifugation and lymphocyte growth enhancement by 1% (v/v) of the mitogenic phytohemagglutinin-M (PHA-M, ThermoFisher Scientific, 10576015). Cell lines were maintained in RPMI 1640 medium supplemented with 20 % fetal bovine serum, 2 % L-glutamine, 20 units/mL penicillin and 20 µg/ml streptomycin in T75 flasks in 5 % CO2 at 37 °C. Cells were maintained at a density of 10^6 cells/mL, with cell density monitored every other day using trypan blue staining.
Coverslips (13 mm diameter) were placed into 24-well plates and coated with Cell-Tak Cell and Tissue Adhesive solution (Corning, nr. 354240) according to manufacturer's instructions. After 20 minutes incubation at room temperature, the solution was removed, and coverslips were rinsed twice with distilled water followed by air-drying. Lymphoblast cells (200,000/well) were added to dry coated coverslips, and cells attached by slight centrifugation at 690 g for 10 minutes at room temperature (without brake). Cells were fixed with 2 % paraformaldehyde (PFA) in phosphate-buffered saline (PBS) for 20 minutes at room temperature, followed by 5 min of ice-cold methanol fixation before permeabilization with 0.2% Triton-X100/PBS for 20 min. After blocking for 1 hour in 0.5% BSA (w/v) in 0.2% Triton-X100/PBS (blocking buffer), cells were incubated with primary antibodies overnight at 4 °C in blocking buffer. Primary antibodies included mouse monoclonal anti-γ-tubulin (1:1000; Abcam ab11316), rabbit polyclonal anti-pericentrin (1:1000; Abcam ab4448) or rabbit monoclonal anti-phospho-Rab10 (1:100; Abcam ab237703). The following day, coverslips were washed three times 10 minutes in 0.2% Triton-X100/PBS, followed by incubation with secondary antibodies (Alexa488-conjugated goat anti-mouse (1:1000; Invitrogen) and Alexa594-conjugated goat anti-rabbit (1:1000; Invitrogen)) in blocking buffer for 1 hour. Coverslips were washed three times in 0.2% Triton-X100/PBS, rinsed in PBS and mounted in mounting medium with DAPI (Vector Laboratories). For staining with the anti-phospho-Rab10 antibody, the methanol fixation was omitted, and 0.2% Triton-X100 was replaced by 0.1% saponin throughout. For treatment of cells with MLi2, cells were seeded on coated coverslips as described above, and incubated with or without MLi2 (generous gift of D. Alessi, University of Dundee, UK) (or DMSO as control) at the indicated concentrations for two hours at 37 °C, before attachment by slight centrifugation followed by fixation as described above.
Images were acquired on a Leica TCS-SP5 confocal microscope using a 63X 1.4 NA oil UV objective (HCX PLAPO CS). Images were collected using single excitation for each wavelength separately, and dependent on secondary antibodies (488 nm Argon Laser line and a 498-551 nm emission band pass; 543 HeNe laser line and a 615-671 nm emission band pass; 405 nm UV diode and a 418-467 nm emission band pass). Around 30 image sections of selected areas were acquired with a step size of 0.5 µm, and z-stack images analyzed and processed using Leica Applied Systems (LAS AF6000) image acquisition software. The same laser intensity settings, exposure times and zoom were used for image acquisition of individual experiments to be quantified.

sporadic PD lymphoblasts = experiment: Centrosomal cohesion deficit in lymphoblasts from sporadic PD patients (immunofluorescence, confocal imaging); type: cell-based, human; conditions: subset of sporadic PD patients with deficit (not G2019S carriers); short-term application of 10 nM MLi2; Figures 4A to 4D
Source text: Peripheral blood mononuclear cells (PBMCs) were collected and processed according to manufacturer's instructions, and lymphocytes were immortalized by infection with Epstein-Barr virus (EBV) as described. Briefly, cell lines were established from freshly isolated or cryopreserved lymphocytes using standard EBV transformation protocols which include cell separation by gradient centrifugation and lymphocyte growth enhancement by 1% (v/v) of the mitogenic phytohemagglutinin-M (PHA-M, ThermoFisher Scientific, 10576015). Cell lines were maintained in RPMI 1640 medium supplemented with 20 % fetal bovine serum, 2 % L-glutamine, 20 units/mL penicillin and 20 µg/ml streptomycin in T75 flasks in 5 % CO2 at 37 °C. Cells were maintained at a density of 10^6 cells/mL, with cell density monitored every other day using trypan blue staining. […]
Images were acquired on a Leica TCS-SP5 confocal microscope using a 63X 1.4 NA oil UV objective (HCX PLAPO CS). […] Around 30 image sections of selected areas were acquired with a step size of 0.5 µm, and z-stack images analyzed and processed using Leica Applied Systems (LAS AF6000) image acquisition software. The same laser intensity settings, exposure times and zoom were used for image acquisition of individual experiments to be quantified.

| Compound | reversal of the cohesion deficit ([1]; 1 nM MLi2, Figures 3A and 3B) | reversal of the cohesion deficit ([1]; 10 nM MLi2, Figures 3A and 3B) | Centrosomal deficits in all G2019S LRRK2 PD samples ([1]; larger sampling, individual samples, Figure 4C) | centrosomal alterations ([1]; larger sampling, short-term application of 10 nM MLi2, Figures 4A and 4B) | Centrosomal cohesion deficits [1] | centrosomal cohesion deficits upon removal of kinase inhibitor ([1]; washout of inhibitor, G2019S LRRK2 PD samples, Figures 3A and 3B) | Centrosomal cohesion deficits (sporadic PD lymphoblasts) |
| --- | --- | --- | --- | --- | --- | --- | --- |
| CC1CN(c2cc(-c3n[nH]c4ccc(OC5(C)CC5)cc34)ncn2)CC(C)O1 (centres unmarked) [MLi2, 3-(4-Pyrimidinyl) Indazole] | significant reversal | complete reversal | reverted by MLi2 in all cases | reverted | could be reversed | reverted back to the ones observed in the absence of inhibitor | reverted |
| O=C(Nc1cccnc1)c1cc(-c2ccnc(F)c2)ccc1OCc1ccccc1 [GSK2578215A, 2-(benzyloxy)-5-(2-fluoropyridin-4-yl)-N-(pyridin-3-yl)benzamide] | – | – | – | – | could be reversed | – | – |
